Consider 14 compounds from patent publication US20120149631A1 (priority 2009, published 2012).

The test system of assay [1] is A. actinomycetemcomitans Y4.
The subject of assay [2] is A. actinomycetemcomitans. The note with it: cited from earlier work.
The subject of another assay is F. novicida biofilm. It is filed as cell-based, F. novicida (F. tularensis novicida).
In the next assay the test system is F. novicida. The note with it: 24 h.
Another assay deals with P. aeruginosa biofilms. The note with it: Overhage 2008; cited from earlier work.
Assay [3] deals with K12 E. coli (ATCC #25404).
Assay [4] concerns A. actinomycetemcomitans. Description: microbe, parasite or virus in culture. It is filed as cell-based.
A further assay concerns E. coli (ATCC 25922). The note with it: cited from earlier work.
The subject of a further assay is P. aeruginosa. The note with it: P. aeruginosa (ATCC 27853); cited from earlier work.
[5] abbreviates: read-out: EC50 uM, E. coli, 3 h incubation, CFU enumeration.
Setting [6] is: Aggregatibacter actinomycetemcomitans.
Setting [7] is: Aggregatibacter actinomycetemcomitans, read-out: EC50 in μM.

In brackets after ≈: the same amount, converted by molar mass. Read-outs that look alike come from different tables or passages of the source. No end group written: not given here.

In the case of `CC[C@H](C)[C@H](NC(=O)[C@H](CCCCN)NC(=O)[C@H](CCC(=O)O)NC(=O)[C@H](CCCCN)NC(=O)[C@H](CO)NC(=O)[C@H](CCCCN)NC(=O)[C@H](CCCNC(=N)N)NC(=O)[C@H](Cc1ccccc1)NC(=O)[C@H](Cc1ccccc1)NC(=O)[C@H](CC(=O)O)NC(=O)CNC(=O)[C@H](CC(C)C)NC(=O)[C@@H](N)CC(C)C)C(=O)NCC(=O)N[C@@H](CCCCN)C(=O)N[C@@H](CCC(=O)O)C(=O)N[C@@H](Cc1ccccc1)C(=O)N[C@@H](CCCCN)C(=O)N[C@@H](CCCNC(=N)N)C(=O)N[C@H](C(=O)N[C@H](C(=O)N[C@@H](CCC(N)=O)C(=O)N[C@@H](CCCNC(=N)N)C(=O)N[C@H](C(=O)N[C@@H](CCCCN)C(=O)N[C@@H](CC(=O)O)C(=O)N[C@@H](Cc1ccccc1)C(=O)N[C@@H](CC(C)C)C(=O)N[C@@H](CCCNC(=N)N)C(=O)N[C@@H](CC(N)=O)C(=O)N[C@@H](CC(C)C)C(=O)N[C@H](C(=O)N1CCC[C@H]1C(=O)N[C@@H](CCCNC(=N)N)C(=O)N[C@H](C(=O)N[C@@H](CCC(=O)O)C(=O)N[C@@H](CO)C(=O)O)[C@@H](C)O)C(C)C)[C@@H](C)CC)C(C)C)[C@@H](C)CC` [LL-37], in assay [1], the “EC50 ug/mL” value turned out to be 6.24 µg/mL (≈ 1.39 µM), the EC50 worked out at 6.224 µg/mL and the “EC50 (μg/mL)” value came to 6.244 µg/mL (≈ 1.39 µM). This compound also showed an EC50 in [1] (24 h) of 1.39 µM. Moreover, in the assay on A. actinomycetemcomitans [2], the ED99 is 8.2 µg/mL and the MBC entry is given as “above 100 μg/mL”. Further, in the assay with F. novicida biofilm, the “concentration with significant inhibition of biofilm formation” value is at most 3.8 ng/mL and the inhibition of growth result is given as “no inhibition of growth”. Moreover, the MIC entry against F. novicida was “greater than 250 μg/ml”. For the same compound, the “concentration inhibiting formation of biofilms” value in the assay with P. aeruginosa biofilms is 0.05 µg/mL. Also, the EC50 in assay [3] (E. coli K12) stood at 0.519 µg/mL. Further, in assay [3] (E. coli, 3 h incubation, CFU enumeration), the 50% effective concentration (EC50) worked out at 0.514 µg/mL. In addition, the EC50 in assay [3] (setting [5]) was found to be 0.114 µM.
Take `CC1(C)S[C@@H]2[C@H](NC(=O)[C@H](N)c3ccc(O)cc3)C(=O)N2[C@H]1C(=O)O` [amoxicillin]: the half-maximal effective concentration (EC50) was found to be 29.6 µg/mL with A. actinomycetemcomitans [4] (setting [6]) and 80.9 µM in the assay with A. actinomycetemcomitans [4] (setting [7]).
Taken in the same sequence, the figures for `CC1(C)S[C@@H]2[C@H](NC(=O)[C@H](N)c3ccccc3)C(=O)N2[C@H]1C(=O)O` [ampicillin] were 75 µg/mL and 215 µM.
Turning to `CC[C@H]1OC(=O)[C@H](C)[C@@H](O[C@H]2C[C@@](C)(OC)[C@@H](O)[C@H](C)O2)[C@H](C)[C@@H](O[C@@H]2O[C@H](C)C[C@H](N(C)C)[C@H]2O)[C@](C)(O)C[C@@H](C)CN(C)[C@H](C)[C@@H](O)[C@]1(C)O` [azithromycin], the EC50 with A. actinomycetemcomitans [4] (setting [6]) is 34.4 µg/mL; in the assay with A. actinomycetemcomitans [4] (setting [7]), 45.9 µM.
Turning to `CCC[C@@H]1C[C@@H](C(=O)N[C@@H]([C@H]2O[C@H](SC)[C@H](O)[C@@H](O)[C@H]2O)[C@H](C)Cl)N(C)C1` [clindamycin], the results for the EC50 in the assay on A. actinomycetemcomitans [4] (setting [6]) and with A. actinomycetemcomitans [4] (setting [7]) were above 250 µg/mL and above 542 µM, respectively.
For `Cc1ncc([N+](=O)[O-])n1CCO` [metronidazole], the EC50 came to 19.5 µg/mL in the assay with A. actinomycetemcomitans [4] (setting [6]) and 114 µM in the assay on A. actinomycetemcomitans [4] (setting [7]).
GGLRSLGRKILRAWKKYGPIIVPIIRIG [BMAP-28] yielded an EC50 in assay [1] (24 h) of 0.215 µM.
In [1] (24 h), “GLLSRLRDFLSDRGRRLGEKIERIGQKIKDLSEFFQS [PMAP-37]” displayed an EC50 of 1.25 µM. The minimum inhibitory concentration (MIC) in the assay on E. coli (ATCC 25922) is 1 µM; in the assay on P. aeruginosa, 4 µM.
Turning to “GLRKRLRKFRNKIKEKLKKIGQKIQGLLPKLAPRTDY [CAP-18]”, the 50% effective concentration (EC50) in [1] (24 h) is 1.59 µM.
In the case of KRAKKFFKKLK-NH2 [ATRA-1A], the EC50 in [3] (setting [5]) came out at 0.659 µM.
Regarding KRFKKFFKKPK-NH2 [ATRA-1P], in assay [3] (setting [5]), the EC50 was determined as 4.76 µM.
Turning to “RLKELITTGGQKIGEKIRRIGQRIKDFFKNLQPREEKS [K9CATH]”, the EC50 in assay [1] (24 h) is 0.111 µM.
As to gentamicin, in the assay with A. actinomycetemcomitans [4], the “EC50 (μg/mL)” value was 1.597 µg/mL. For the same compound, the concentration for a half-maximal effect (EC50) in the assay on A. actinomycetemcomitans [4] (read-out: EC50) is 3.34 µM.
In the case of “hBD-4: antimicrobial listed in Table 6, not further described (EFELDRICGYGTARCRKKCRSQEYRIGRCPNTYACCLRKWDESLLNRTKP; UniProt Q8WTQ1 23-72, looked up)”, the “EC50 (μg/mL)” value in assay [1] was at least 100 µg/mL. Also, in [1] (read-out: EC50 in μM), the concentration for a half-maximal effect (EC50) was above 22.9 µM.

One may read the EC50 as the concentration that produces a half-maximal response. In general, MIC refers to the lowest concentration that inhibits growth of the organism.
